Experimental data as given in ChEMBL document CHEMBL3132854, “Synthesis and anticancer activity evaluation of resveratrolchalcone conjugates” (2014).

Assays:
Assay type in all cases: functional
DU-145 = experiment: Cytotoxicity against human DU145 cells by sulforhodamine B assay
786-0 = experiment: Cytotoxicity against human 786-0 cells by sulforhodamine B assay
SK-OV-3 = experiment: Cytotoxicity against human SKOV3 cells by sulforhodamine B assay
IGROV-1 = experiment: Cytotoxicity against human IGROV1 cells by sulforhodamine B assay
[1] = Cytotoxicity against human UACC257 cells by sulforhodamine B assay
HT-29 = experiment: Cytotoxicity against human HT-29 cells by sulforhodamine B assay
HCC 2998 = experiment: Cytotoxicity against human HCC2998 cells by sulforhodamine B assay
NCI-H23 = experiment: Cytotoxicity against human NCI-H23 cells by sulforhodamine B assay
HOP-62 = experiment: Cytotoxicity against human HOP62 cells by sulforhodamine B assay
SR = experiment: Cytotoxicity against human SR cells by sulforhodamine B assay
[2] = read-out: LC50 (the source's name)

COc1ccc(C(=O)/C=C/c2ccc(/C=C/c3cc(OC)c(OC)c(OC)c3)cc2)cc1
GI50 (DU-145): 10.2 µM | TGI (DU-145): > 100 µM | CC50 (DU-145; [2]): > 100 µM | GI50 (786-0): 10.4 µM | TGI (786-0): 71.1 µM | CC50 (786-0; [2]): > 100 µM | GI50 (SK-OV-3): 15.6 µM | TGI (SK-OV-3): 64.5 µM | CC50 (SK-OV-3; [2]): > 100 µM | GI50 (IGROV-1): 9.24 µM | TGI (IGROV-1): 76.4 µM | CC50 (IGROV-1; [2]): > 100 µM | GI50 ([1]; UACC-257): 9 µM | TGI ([1]; UACC-257): > 100 µM | CC50 ([1]; UACC-257, read-out: LC50 (the source's name)): > 100 µM | GI50 (HT-29): 4.17 µM | TGI (HT-29): > 100 µM | CC50 (HT-29; [2]): > 100 µM | GI50 (HCC 2998): 38.4 µM | TGI (HCC 2998): > 100 µM | CC50 (HCC 2998; [2]): > 100 µM | GI50 (NCI-H23): 5.39 µM | TGI (NCI-H23): 65.9 µM | CC50 (NCI-H23; [2]): > 100 µM | GI50 (HOP-62): 1.28 µM | TGI (HOP-62): 63.8 µM | CC50 (HOP-62; [2]): > 100 µM | GI50 (SR): 1.98 µM | TGI (SR): > 100 µM | CC50 (SR; [2]): > 100 µM
